In patent US9999224B2, “Antimicrobial reverse thermal gel and methods of forming and using same” (The Regents of the University of Colorado, a body corporate, priority 2014, dated 2018):

System: cells
Test: MTT assay, cytotoxicity / biocompatibility (FIG. 12)
Assay type: cell-based
Conditions: cells plated on dried polymer layer; Q-PEI-PNIPAAm 20% conjugation at 1, 3 and 5%; negative control growth medium, positive control 5% DMSO
Protocol: FIG. 12 illustrates Cytotoxicity Tests of Q-PEI-PNIPAAm. An MTT assay was conducted to assess the biocompatibility of Q-PEI-PNIPAAm. Several methods were used to conduct this test. Previously, the Q-PEI-PNIPAAm polymer had been placed on top of the cells mixed with the media; however, due to the gelling nature of the sample the polymer was not in contact with the cells for long period of time. Due to this, the methodology was modified and the cells were plated on top of the polymer and then trypsinized and re-plated before conducting the test; however, trypsinizing, centrifuging and re-plating cells can lead to higher variability in number of cells per well and since the cells were not left to attached on the plates for long enough the results may be inaccurate. Finally the polymer was dissolved in alcohol, left to evaporate and then the cells were plated on top. Since the MTT measures absorbance, blanks were required for each sample. However, the layer of polymer on the plate needed to be very thin so the polymer concentration tested was 1, 3 and 5%. […] Chlorhexidine 2%, a common skin preparation solution was tested as a control.
A statistically significant difference was observed between the experimental samples, negative and positive control (cells cultured with 5% DMSO) (***indicates […], and **indicates p<0.05.).

With `[H]/N=C(\N/C(=N/[H])NCCCCCCNC(=N)NC(=N)Nc1ccc(Cl)cc1)Nc1ccc(Cl)cc1` [chlorhexidine] the “Metabolic activity of cells (MTT absorbance) versus controls” value was “the same difference was obtained”.
